This passage reports IC50 results from US9290459B1, “Substituted bicyclic dihydropyrimidinones and their use as inhibitors of neutrophil elastase activity” (Boehringer Ingelheim International GmbH, priority 2013, dated 2016).

Human neutrophil elastase, sequence (P08246 30-247): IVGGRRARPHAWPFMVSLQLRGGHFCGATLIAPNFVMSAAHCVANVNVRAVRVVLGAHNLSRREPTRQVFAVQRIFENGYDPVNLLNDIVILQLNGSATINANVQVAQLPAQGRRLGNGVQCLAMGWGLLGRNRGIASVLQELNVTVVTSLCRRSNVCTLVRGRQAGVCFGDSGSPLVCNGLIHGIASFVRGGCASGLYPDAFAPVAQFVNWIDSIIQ

This test has as its target Human neutrophil elastase (Homo sapiens (Human), UniProt P08246). Description: Human Neutrophil Elastase Assay. In kind it is biochemical. The settings on record: human neutrophil elastase, substrate MeOSuc-Ala-Ala-Pro-Val-AMC 250 μM, pH 7.5; read-out: IC50.
In general, IC50 refers to the point on the concentration scale where inhibition reaches its midpoint. In the case of `CNC(=O)N1C(=O)N(c2ccnc(C(F)(F)F)c2)C2=C(C(=O)CC2)C1c1ccc(C#N)cc1` (racemic) [Example 54.1], the IC50 was 4.9 nM.

For `N#Cc1ccc(C2C3=C(CCC3=O)N(c3ccnc(C(F)(F)F)c3)C(=O)N2C(=O)NC2CC2)cc1` (racemic) [Example 54.3], the IC50 was found to be 1.5 nM. For `CC(C)NC(=O)N1C(=O)N(c2ccnc(C(F)(F)F)c2)C2=C(C(=O)CC2)C1c1ccc(C#N)cc1` (racemic) [Example 54.4] the value was 2.4 nM; for `CNC(=O)N1C(=O)N(c2ccnc(C(F)(F)F)c2)C2=C(C(=O)CC2)C1c1ccc(C#N)cc1S(C)(=O)=O` (racemic) [Example 56.1], below 1 nM. `CCNC(=O)N1C(=O)N(c2ccnc(C(F)(F)F)c2)C2=C(C(=O)CC2)C1c1ccc(C#N)cc1S(C)(=O)=O` (racemic) [Example 56.2]: the half-maximal inhibitory concentration (IC50) was below 1 nM. For the compound `C[S+]([O-])c1cc(C#N)ccc1C1NC(=O)N(c2cccc(C(F)(F)F)c2)C2=C1C(=O)CC2` (single isomer, unassigned) [Example 17A, 4-(2,5-dioxo-1-(3-(trifluoromethyl)phenyl)-2,3,4,5,6,7-hexahydro-1H-cyclopenta[d]pyrimidin-4-yl)-3-(methylsulfinyl)benzonitrile], the IC50 is 8.1 nM. For the compound `C[S+]([O-])c1cc(C#N)ccc1C1NC(=O)N(c2cccc(C(F)(F)F)c2)C2=C1C(=O)CC2` (single isomer, unassigned) [Example 17B, 4-(2,5-dioxo-1-(3-(trifluoromethyl)phenyl)-2,3,4,5,6,7-hexahydro-1H-cyclopenta[d]pyrimidin-4-yl)-3-(methylsulfinyl)benzonitrile], the concentration for half-maximal inhibition (IC50) is 9.4 nM. For `COC(=O)CN1C(=O)N(c2cccc(C(F)(F)F)c2)C2=C(C(=O)CC2)C1c1ccc(C#N)cc1` (stereo not shown) [Example 3, Methyl 2-(4-(4-Cyanophenyl)-2,5-dioxo-1-(3-(trifluoromethyl)phenyl)-6,7-dihydro-1H-cyclopenta[d]pyrimidin-3(2H,4H,5H)-yl)acetate] the value was 17 nM. For `N#Cc1ccc(C2C3=C(CCC3=O)N(c3cccc(C(F)(F)F)c3)C(=O)N2CC(=O)O)cc1` (stereo not shown) [Example 4, 2-(4-(4-Cyanophenyl)-2,5-dioxo-1-(3-(trifluoromethyl)phenyl)-6,7-dihydro-1H-cyclopenta[d]pyrimidin-3(2H,4H,5H)-yl)acetic acid] the value was 10.9 nM. For `N#Cc1ccc(C2C3=C(CCC3=O)N(c3cccc(C(F)(F)F)c3)C(=O)N2CC(N)=O)cc1` (stereo not shown) [Example 5, 2-(4-(4-Cyanophenyl)-2,5-dioxo-1-(3-(trifluoromethyl)phenyl)-6,7-dihydro-1H-cyclopenta[d]pyrimidin-3(2H,4H,5H)-yl)acetamide] the value was 11.2 nM; for `N#Cc1ccc(C2C3=C(CCC3=O)N(c3cccc(C(F)(F)F)c3)C(=O)N2CC(=O)N2CCSCC2)cc1` (stereo not shown) [Example 6, 4-(2,5-Dioxo-3-(2-oxo-2-thiomorpholinoethyl)-1-(3-(trifluoromethyl)phenyl)-2,3,4,5,6,7-hexahydro-1H-cyclopenta[d]pyrimidin-4-yl)benzonitrile], 3 nM; for `CN(C)C(=O)N1C(=O)N(c2cccc(C(F)(F)F)c2)C2=C(C(=O)CC2)C1c1ccc(C#N)cc1` (stereo not shown) [Example 7, 4-(4-Cyanophenyl)-N,N-dimethyl-2,5-dioxo-1-(3-(trifluoromethyl)phenyl)-4,5,6,7-tetrahydro-1H-cyclopenta[d]pyrimidine-3(2H)-carboxamide], 124 nM. For `COC(=O)N1C(=O)N(c2cccc(C(F)(F)F)c2)C2=C(C(=O)CC2)C1c1ccc(C#N)cc1` (stereo not shown) [Example 8, Methyl 4-(4-Cyanophenyl)-2,5-dioxo-1-(3-(trifluoromethyl)phenyl)-4,5,6,7-tetrahydro-1H-cyclopenta[d]pyrimidine-3(2H)-carboxylate], the IC50 was determined as 4 nM.
